Biological target: T1, F508del CFTR (Homo sapiens, UniProt P13569, DEL508-508)
T1 construct: Primary CF airway epithelial cells were obtained from the UNC Cystic Fibrosis Tissue Procurement and Cell Culture Core; host or cells: primary CF airway epithelial cells
Assay: Equivalent current assay in primary CF airway epithelial cells (Corrector Activity, NAUC normalized to 3 μM VX809)
Type: cell-based
Conditions: NAUC as % of positive control (VX-809)
How it was run: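 Readout is NAUC: current area from forskolin/potentiator addition until CFTR-172, minus vehicle, relative to 3 μM VX809 (=1.0). Cells were primary CF epithelia at air-liquid interface ≥4 weeks, given basolateral compound for 24 h at 37° C; median of n≥4 replicates, sigmoid fit with nH fixed at 1.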

T1 sequence (P13569 with tags, fused parts or gaps DEL508-508): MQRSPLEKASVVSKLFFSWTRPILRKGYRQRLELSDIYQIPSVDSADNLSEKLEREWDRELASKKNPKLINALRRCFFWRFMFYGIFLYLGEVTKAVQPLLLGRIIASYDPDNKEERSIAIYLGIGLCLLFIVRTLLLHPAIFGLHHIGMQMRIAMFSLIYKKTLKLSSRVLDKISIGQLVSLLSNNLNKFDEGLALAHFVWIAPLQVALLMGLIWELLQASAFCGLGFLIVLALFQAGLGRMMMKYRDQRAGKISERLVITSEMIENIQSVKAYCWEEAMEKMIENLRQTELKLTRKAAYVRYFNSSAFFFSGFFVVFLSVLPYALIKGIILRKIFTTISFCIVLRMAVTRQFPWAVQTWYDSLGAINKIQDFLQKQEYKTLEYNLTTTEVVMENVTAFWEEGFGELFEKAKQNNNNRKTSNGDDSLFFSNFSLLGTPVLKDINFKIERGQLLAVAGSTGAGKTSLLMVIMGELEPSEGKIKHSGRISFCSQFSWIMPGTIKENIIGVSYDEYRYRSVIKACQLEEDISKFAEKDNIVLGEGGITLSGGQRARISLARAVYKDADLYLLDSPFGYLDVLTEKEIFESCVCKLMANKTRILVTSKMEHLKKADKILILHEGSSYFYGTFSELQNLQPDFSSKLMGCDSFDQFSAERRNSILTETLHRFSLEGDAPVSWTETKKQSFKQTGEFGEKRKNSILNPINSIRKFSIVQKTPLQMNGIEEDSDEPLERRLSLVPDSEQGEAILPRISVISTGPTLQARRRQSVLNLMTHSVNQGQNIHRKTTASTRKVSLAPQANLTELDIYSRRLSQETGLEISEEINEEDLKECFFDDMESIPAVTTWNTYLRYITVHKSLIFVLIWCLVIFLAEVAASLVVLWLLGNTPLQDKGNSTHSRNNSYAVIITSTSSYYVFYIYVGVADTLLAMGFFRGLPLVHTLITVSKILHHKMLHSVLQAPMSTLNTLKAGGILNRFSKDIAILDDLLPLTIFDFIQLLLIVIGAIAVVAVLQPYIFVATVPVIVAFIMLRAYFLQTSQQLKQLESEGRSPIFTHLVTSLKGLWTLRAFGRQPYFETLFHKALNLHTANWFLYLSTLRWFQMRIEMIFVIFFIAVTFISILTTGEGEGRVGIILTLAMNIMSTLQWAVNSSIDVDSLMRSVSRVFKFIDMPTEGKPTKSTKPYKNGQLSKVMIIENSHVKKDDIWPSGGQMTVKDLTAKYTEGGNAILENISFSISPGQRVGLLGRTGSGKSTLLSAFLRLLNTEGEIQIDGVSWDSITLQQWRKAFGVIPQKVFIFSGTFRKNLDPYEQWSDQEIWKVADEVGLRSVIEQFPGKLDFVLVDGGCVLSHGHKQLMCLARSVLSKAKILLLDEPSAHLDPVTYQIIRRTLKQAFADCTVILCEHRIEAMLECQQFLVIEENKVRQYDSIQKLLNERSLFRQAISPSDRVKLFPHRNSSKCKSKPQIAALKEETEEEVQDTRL

For `CCN(C(=O)Cn1nc(-c2ccc(N3CCCC3)c(C#N)c2)c2[nH]cnc2c1=O)c1ccc2c(c1)OC(F)(F)O2` [Example 352], which “Corr Activity (NAUC)” value is on record?
The value was “+++ (NAUC>70% of positive control)”.

How did the “Corr Activity (NAUC)” value turn out when `CCN(C(=O)Cn1nc(-c2cccc(C#N)c2)c2oc3ccccc3c2c1=O)c1ccc2c(c1)OC(F)(F)O2` [Example 159] was run?
Its value is “+++ (NAUC>70% of positive control)”.

For `CN(C(=O)Cn1nc(-c2cccc(C#N)c2)c2oc(C(=O)NC(C)(C)C)cc2c1=O)c1ccc2c(c1F)OC(F)(F)O2` [Example 148], which “Corr Activity (NAUC)” value is on record?
Its value is “+++ (NAUC>70% of positive control)”.

`CCN(C(=O)Cn1nc(-c2cc(C)cc(C#N)c2)c2oc(C(=O)NC3(C(F)(F)F)CC3)cc2c1=O)c1cc2c(cc1C)OC(F)(F)O2` [Example 154] was tested. Which “Corr Activity (NAUC)” value did it give?
Its value is “+++ (NAUC>70% of positive control)”.

For `CCN(C(=O)Cn1nc(-c2cc(O)cc(OC(F)(F)F)c2)c2[nH]cnc2c1=O)c1ccc2c(c1)OC(F)(F)O2` [Example 284], which “Corr Activity (NAUC)” value is on record?
Its value is “+ (NAUC<40% of positive control)”.

With `CCN(C(=O)Cn1nc(-c2cccc(F)c2)c2cn[nH]c2c1=O)c1ccc2c(c1)OC(F)(F)O2` [Example 495] as the compound, how does the “Corr Activity (NAUC)” value read?
The value was “++ (NAUC 70-40% of positive control)”.

For `CN(C(=O)Cn1nc(-c2cccc(C#N)c2)c2oc(C(F)F)cc2c1=O)c1ccc2c(c1)OC(F)(F)O2` [Example 180, 2-(7-(3-cyanophenyl)-2-(difluoromethyl)-4-oxofuro[2,3-d]pyridazin-5(4H)-yl)-N-(2,2-difluorobenzo[d][1,3]dioxol-5-yl)-N-methylacetamide], which “Corr Activity (NAUC)” value is on record?
The value was “+++ (NAUC>70% of positive control)”.

`N#Cc1cc(-c2nn(CC(=O)N(c3ccc4c(c3)OC(F)(F)O4)C3CC3)c(=O)c3nc[nH]c23)cc(C(F)(F)F)c1` [Example 404] was tested. Which “Corr Activity (NAUC)” value did it give?
The value was “++ (NAUC 70-40% of positive control)”.

`CCN(C(=O)Cn1nc(-c2cc(Cl)cc(Cl)c2)c2oc(C3CC3)cc2c1=O)c1ccc2c(c1)OC(F)(F)O2` [Example 221] was tested. Which “Corr Activity (NAUC)” value did it give?
The value was “+++ (NAUC>70% of positive control)”.

`CN(C(=O)Cn1nc(-c2cccc(Cl)c2)c2oc(C(=O)N3CCCC3)cc2c1=O)c1ccc2c(c1)OC(F)(F)O2` [Example 65, 2-(7-(3-chlorophenyl)-4-oxo-2-(pyrrolidine-1-carbonyl)furo[2,3-d]pyridazin-5(4H)-yl)-N-(2,2-difluorobenzo[d][1,3]dioxol-5-yl)-N-methylacetamide] was tested. Which “Corr Activity (NAUC)” value did it give?
The value was “+ (NAUC<40% of positive control)”.

With `CCN(C(=O)Cn1nc(-c2ccc(S(=O)(=O)NC(C)(C)C)c(C)c2)c2[nH]cnc2c1=O)c1ccc2c(c1)OC(F)(F)O2` [Example 355] as the compound, how does the “Corr Activity (NAUC)” value read?
Its value is “+ (NAUC<40% of positive control)”.

Which “Corr Activity (NAUC)” value does the source give for `Cc1cc(C#N)cc(-c2nn(CC(=O)N(C)c3cc4c(cc3C)OC(F)(F)O4)c(=O)c3ccoc23)c1` [Example 165] here?
Its value is “+++ (NAUC>70% of positive control)”.

Which “Corr Activity (NAUC)” value does the source give for `CCN(C(=O)Cn1nc(-c2cc(C#N)cc(OCCO)c2)c2occc2c1=O)c1ccc2c(c1)OC(F)(F)O2` [Example 214] here?
Its value is “++ (NAUC 70-40% of positive control)”.

For `COc1cc(F)cc(-c2nn(CC(=O)N(c3ccc4c(c3)OC(F)(F)O4)C3CC3)c(=O)c3nc[nH]c23)c1` [Example 383], which “Corr Activity (NAUC)” value is on record?
The value was “++ (NAUC 70-40% of positive control)”.

For `Cc1nc2ccc(N(C)C(=O)Cn3nc(-c4cccc(C#N)c4)c4oc5ccccc5c4c3=O)cc2o1` [Example 158], which “Corr Activity (NAUC)” value is on record?
The value was “+++ (NAUC>70% of positive control)”.

`Cc1cc2c(cc1N(C)C(=O)Cn1nc(-c3cc(Cl)cc(C#N)c3)c3oc(C(=O)NC(C)(C)C)cc3c1=O)OC(F)(F)O2` [Example 138] was tested. Which “Corr Activity (NAUC)” value did it give?
Its value is “+++ (NAUC>70% of positive control)”.

`CCN(C(=O)Cn1nc(-c2cc(F)cc(F)c2)c2[nH]cnc2c1=O)c1ccc2c(c1)OC(F)(F)O2` [Example 258] was tested. Which “Corr Activity (NAUC)” value did it give?
Its value is “+++ (NAUC>70% of positive control)”.

For `Cc1nc2ccc(N(C)C(=O)Cn3nc(-c4cccc(Cl)c4)c4c(c3=O)CCC4)cc2o1` [Example 48], which “Corr Activity (NAUC)” value is on record?
Its value is “++ (NAUC 70-40% of positive control)”.

Which “Corr Activity (NAUC)” value does the source give for `O=C(Cn1nc(-c2cccc(F)c2)c2[nH]cnc2c1=O)N(c1ccc2c(c1)OC(F)(F)O2)C1CC1` [Example 370] here?
The value was “+ (NAUC<40% of positive control)”.

How did the “Corr Activity (NAUC)” value turn out when `Cc1cc(C#N)cc(-c2nn(CC(=O)N(C)c3ccc4c(c3)OC(F)(F)O4)c(=O)c3cc(C(=O)NC(C)(C)C)oc23)c1` [Example 132] was run?
Its value is “+++ (NAUC>70% of positive control)”.

Which “Corr Activity (NAUC)” value does the source give for `CN(C(=O)Cn1nc(-c2cc(C#N)cc(C(F)(F)F)c2)c2occc2c1=O)c1ccc2c(c1)OC(F)(F)O2` [Example 98] here?
Its value is “++ (NAUC 70-40% of positive control)”.

How did the “Corr Activity (NAUC)” value turn out when `O=C(Cn1nc(-c2cccc(F)c2)c2occc2c1=O)N1CCCc2c1ccc1c2OC(F)(F)O1` [Example 162] was run?
Its value is “+++ (NAUC>70% of positive control)”.

`O=C(Cn1nc(-c2ccc(OCC(F)(F)F)c(F)c2)c2[nH]cnc2c1=O)N(c1ccc2c(c1)OC(F)(F)O2)C1CC1` [Example 457] was tested. Which “Corr Activity (NAUC)” value did it give?
Its value is “+ (NAUC<40% of positive control)”.

For `N#Cc1cc(F)cc(-c2nn(CC(=O)N(c3ccc4c(c3)OC(F)(F)O4)C3CC3)c(=O)c3nc[nH]c23)c1` [Example 368], which “Corr Activity (NAUC)” value is on record?
Its value is “+++ (NAUC>70% of positive control)”.

With `CCN(C(=O)Cn1nc(-c2cccc(C#N)c2)c2oc(C(F)F)cc2c1=O)c1ccc2c(c1)OC(F)(F)O2` [Example 187] as the compound, how does the “Corr Activity (NAUC)” value read?
Its value is “+++ (NAUC>70% of positive control)”.

Which “Corr Activity (NAUC)” value does the source give for `CCN(C(=O)Cn1nc(-c2cccc(C#N)c2)c2[nH]ncc2c1=O)c1ccc2c(c1)OC(F)(F)O2` [Example 492, 2-(7-(3-cyanophenyl)-4-oxo-1,4-dihydro-5H-pyrazolo[3,4-d]pyridazin-5-yl)-N-(2,2-difluorobenzo[d][1,3]dioxol-5-yl)-N-ethylacetamide] here?
Its value is “++ (NAUC 70-40% of positive control)”.

For `COc1ccc2cc(-c3nn(CC(=O)N(c4ccc5c(c4)OC(F)(F)O5)C4CC4)c(=O)c4nc[nH]c34)ccc2c1` [Example 412], which “Corr Activity (NAUC)” value is on record?
The value was “++ (NAUC 70-40% of positive control)”.

For `CN(C(=O)Cn1nc(-c2cccc(Cl)c2)c2oc(C(=O)NCCO)cc2c1=O)c1ccc2c(c1)OC(F)(F)O2` [Example 212], which “Corr Activity (NAUC)” value is on record?
Its value is “+ (NAUC<40% of positive control)”.

For `CCN(C(=O)Cn1nc(-c2cc(C#N)cc(OC)c2)c2oc(C(F)F)cc2c1=O)c1ccc2c(c1)OC(F)(F)O2` [Example 190], which “Corr Activity (NAUC)” value is on record?
Its value is “+++ (NAUC>70% of positive control)”.

With `CCN(C(=O)Cn1nc(-c2cc(Cl)cc(Cl)c2)c2oc(C3CCC3)cc2c1=O)c1ccc2c(c1)OC(F)(F)O2` [Example 234] as the compound, how does the “Corr Activity (NAUC)” value read?
The value was “++ (NAUC 70-40% of positive control)”.

With `Cc1c(N(C)C(=O)Cn2nc(-c3cccc(C#N)c3)c3occc3c2=O)ccc2c1OC(F)(F)O2` [Example 53] as the compound, how does the “Corr Activity (NAUC)” value read?
Its value is “+++ (NAUC>70% of positive control)”.

`CN(C(=O)Cn1nc(-c2cccc(OC(F)(F)F)c2)c2oc(C(=O)NC(C)(C)C)cc2c1=O)c1ccc2c(c1)OC(F)(F)O2` [Example 125] was tested. Which “Corr Activity (NAUC)” value did it give?
The value was “++ (NAUC 70-40% of positive control)”.

For `CCN(C(=O)Cn1nc(-c2cc(C)cc(C#N)c2)c2[nH]cnc2c1=O)c1cc2c(cc1C)OC(F)(F)O2` [Example 248], which “Corr Activity (NAUC)” value is on record?
Its value is “+++ (NAUC>70% of positive control)”.

For `CCN(C(=O)Cn1nc(-c2cc(F)cc(C#N)c2)c2occc2c1=O)c1cc2c(cc1C)OC(F)(F)O2` [Example 167], which “Corr Activity (NAUC)” value is on record?
Its value is “+++ (NAUC>70% of positive control)”.

For `CN(C(=O)Cn1nc(-c2cccc(C#N)c2)c2oc(C(F)F)cc2c1=O)c1ccc2c(c1F)OC(F)(F)O2` [Example 197], which “Corr Activity (NAUC)” value is on record?
Its value is “+++ (NAUC>70% of positive control)”.

`CCN(C(=O)Cn1nc(-c2cc(F)cc(CC#N)c2)c2[nH]cnc2c1=O)c1ccc2c(c1)OC(F)(F)O2` [Example 252] was tested. Which “Corr Activity (NAUC)” value did it give?
Its value is “++ (NAUC 70-40% of positive control)”.

Which “Corr Activity (NAUC)” value does the source give for `CCN(C(=O)Cn1nc(-c2cccc(Cl)c2)c2sccc2c1=O)c1ccc2nc(C)oc2c1` [Example 4] here?
The value was “+++ (NAUC>70% of positive control)”.

How did the “Corr Activity (NAUC)” value turn out when `Cc1cc2c(cc1N(C)C(=O)Cn1nc(-c3cc(F)cc(C#N)c3)c3oc(C(=O)NC(C)(C)C)cc3c1=O)OC(F)(F)O2` [Example 135] was run?
The value was “+++ (NAUC>70% of positive control)”.

`CCN(C(=O)Cn1nc(-c2ccc(OC(C)C)c(Cl)c2)c2[nH]cnc2c1=O)c1ccc2c(c1)OC(F)(F)O2` [Example 326] was tested. Which “Corr Activity (NAUC)” value did it give?
The value was “+++ (NAUC>70% of positive control)”.

How did the “Corr Activity (NAUC)” value turn out when `CCN(C(=O)Cn1nc(-c2cc(F)cc(Cl)c2)c2occc2c1=O)c1ccc2c(c1)OC(F)(F)O2` [Example 176] was run?
Its value is “+++ (NAUC>70% of positive control)”.

`CN(C(=O)Cn1nc(-c2cccc(C#N)c2)c2[nH]cnc2c1=O)c1ccc2c(c1F)OC(F)(F)O2` [Example 251] was tested. Which “Corr Activity (NAUC)” value did it give?
The value was “+++ (NAUC>70% of positive control)”.

`CN(C(=O)Cn1nc(-c2cccc(C#N)c2)c2oc(Cl)cc2c1=O)c1ccc2c(c1)OC(F)(F)O2` [Example 64] was tested. Which “Corr Activity (NAUC)” value did it give?
Its value is “++ (NAUC 70-40% of positive control)”.

For `Cc1cc(C#N)cc(-c2nn(CC(=O)N(C)c3cc4c(cc3C)OC(F)(F)O4)c(=O)c3nc[nH]c23)c1` [Example 249], which “Corr Activity (NAUC)” value is on record?
Its value is “+++ (NAUC>70% of positive control)”.

`CCN(C(=O)Cn1nc(-c2cc(C#N)cc(C(F)F)c2)c2oc(C(F)F)cc2c1=O)c1ccc2c(c1)OC(F)(F)O2` [Example 198] was tested. Which “Corr Activity (NAUC)” value did it give?
Its value is “++ (NAUC 70-40% of positive control)”.

Which “Corr Activity (NAUC)” value does the source give for `CCN(C(=O)Cn1nc(-c2cc(C)cc(OC)c2)c2[nH]cnc2c1=O)c1ccc2c(c1)OC(F)(F)O2` [Example 272] here?
Its value is “+ (NAUC<40% of positive control)”.

For `COc1cc(OC(F)(F)F)cc(-c2nn(CC(=O)N(c3ccc4c(c3)OC(F)(F)O4)C3CC3)c(=O)c3nc[nH]c23)c1` [Example 397], which “Corr Activity (NAUC)” value is on record?
Its value is “+ (NAUC<40% of positive control)”.

Source: patent US20220402925A1, “COMPOUNDS AND METHODS FOR THE TREATMENT OF CYSTIC FIBROSIS” (Flatley Discovery Lab, LLC, priority 2019, published 2022)
